Columns and labels:
Format in all cases: cell-based, human
[1] = tested on: secretion of IL-1 from LXFA 526 lung adenocarcinoma Xenograft explants; assay: IL-1 secretion from LXFA 526 lung adenocarcinoma xenograft explants (ELISA); details: for IL-1 content of the supernatants: 24 hours, DMSO control 85.3 pg/ml
Description: (§1) FIG. 1: Effects of Zardaverine (left graph) and Piclamilast (right graph) on the secretion of IL-1 from LXFA 526 lung adenocarcinoma Xenograft explants. Tumor fragments from mice carrying LXFA 526 xenografts were excised and cell suspensions were seeded into 24 Well plates. After seeding of the cells, Zardaverine at concentrations of 100, 3, and 0.1 μM, respectively, and Piclamilast at concentrations of 1, 0.3 and 0.001 μM, respectively were added and supernatants were harvested 24 hours later. IL-1 content of the supernatants was quantitated using R&D Quantikine ELISA kits according to the manufacturer's recommendations.
(§2) To this end primary cultures of tumor cells were derived from cachexia inducing human xenografts grown subcutaneously in nude mice.
(§3) 5 to 10 NMRI nude mice were implanted with tumor fragments derived from the above mentioned Xenografts and grown until the tumors reached approximately 0.5 g, which correlated well with the onset of cachexia. Animals were then sacrificed and tumors were excised. Cells were subsequently isolated under sterile conditions by the use of mechanic disintegrators, proteases, hyaluronidase, and DNAse I. The crude suspension was passed twice through sterile sieves with diameters of 200 and 50 μM, respectively.
(§4) Washed cell pellets were resuspended in Iscove's modified Dulbecco's Medium +20% FCS (fetal calf serum) and 0.24 to 1×10^6 tumor cells were seeded in 24 well plates. The cell isolates not only contained tumor cells, but also blood cells and stromal elements of murine origin. The cell lines RXF 486L was directly utilized and 1×10^6 cells were seeded into each well.
(§5) Piclamilast and Zardaverine were dissolved in 100% DMSO (dimethyl sulfoxide) and applied at a final concentration of 1 μM to 0.001 μM (Piclamilast) or 100 μM to 0.1 μM (Zardaverine). Drugs and cells were plated at the same time. 24 hours after seeding supernatants were collected, centrifuged, and stored at −80° C.
(§6) For the quantitative measurement of IL-1, IL-6, and TNFα, respectively, the supernatants were analyzed using Quantikine ELISA Kits from R&D Systems according to the manufacturer's recommendations.

[2] = tested on: secretion of IL-1 from RXF 393 hypernephroma Xenograft explants; assay: IL-1 secretion from RXF 393 hypernephroma xenograft explants (ELISA); details: for IL-1 content of the supernatants: 24 hours, DMSO control 46.9 pg/ml
Description: as §1, with “2:” for “1:”, “RXF 393 hypernephroma” for “LXFA 526 lung adenocarcinoma”, “RXF 393” for “LXFA 526”, “100” for “100, 3,”, “0.01” for “0.3”
as §2, §3, §4, §5, §6

[3] = tested on: secretion of TNFα from LXFA 526 lung adenocarcinoma Xenograft explants; assay: TNFα secretion from LXFA 526 lung adenocarcinoma xenograft explants (ELISA); details: for TNFα content of the supernatants: 24 hours, DMSO control 16.8 pg/ml
Description: as §1, with “3:” for “1:”, “TNFα” for “IL-1”
as §2, §3, §4, §5, §6

[4] = tested on: secretion of TNFα from LXFE 397 epidermoid adenocarcinoma Xenograft explants; assay: TNFα secretion from LXFE 397 epidermoid adenocarcinoma xenograft explants (ELISA); details: for TNFα content of the supernatants: 24 hours
Description: FIG. 4: Effects of Zardaverine (left graph) and Piclamilast (right graph) on the secretion of TNFα from LXFE 397 epidermoid adenocarcinoma Xenograft explants. Tumor fragments from mice carrying LXFE 397 xenografts were excised and cell suspensions were seeded into 24 Well plates. After seeding of the cells, Zardaverine at concentrations of 30, 10, and 3 μM, respectively, and Piclamilast at concentrations of 0.3; 0.1; and 0.03 μM, respectively were added and supernatants were harvested 24 hours later. TNFα content of the supernatants was quantitated using R&D Quantikine ELISA kits according to the manufacturers recommendations.
as §2, §3, §4, §5, §6

COc1ccc(C(=O)Nc2c(Cl)cncc2Cl)cc1OC1CCCC1 [Piclamilast]
IL-1 content of the supernatants ([1]; 0.001 μM): 81.9 pg/mL | IL-1 content of the supernatants ([1]; 0.3 μM): 64.4 pg/mL | IL-1 content of the supernatants ([1]; 1 μM): 68.9 pg/mL | Modulation of IL-1 expression (in words) ([1]; LXFA 526): able to suppress IL-1 levels | IL-1 content of the supernatants ([2]; 0.001 μM): 43.2 pg/mL | IL-1 content of the supernatants ([2]; 0.01 μM): 43.9 pg/mL | IL-1 content of the supernatants ([2]; 1 μM): 37.8 pg/mL | Modulation of IL-1 expression (in words) ([2]; RXF 393): able to suppress IL-1 levels | TNFα content of the supernatants ([3]; 0.001 μM): 17.2 pg/mL | TNFα content of the supernatants ([3]; 0.3 μM): 15.1 pg/mL | TNFα content of the supernatants ([3]; 1 μM): 13.9 pg/mL | modulation of TNFα levels (in words) ([3]; LXFA 526 cells): able to inhibit the secretion of TNFα | TNFα content of the supernatants ([4]; 0.03 μM, DMSO control 21.5 pg/ml): 14.1 pg/mL | TNFα content of the supernatants ([4]; 0.1 μM, DMSO control 21.5 pg/ml): 12.1 pg/mL | TNFα content of the supernatants ([4]; 0.3 μM, DMSO control 21.5 pg/ml): 10 pg/mL | modulation of TNFα levels (in words) ([4]; LXFE 397 model): able to inhibit the secretion of TNFα

COc1cc(-c2ccc(=O)[nH]n2)ccc1OC(F)F [Zardaverine]
IL-1 content of the supernatants ([1]; 0.1 μM): 77.1 pg/mL | IL-1 content of the supernatants ([1]; 3 μM): 67.9 pg/mL | IL-1 content of the supernatants ([1]; 100 μM): 64.5 pg/mL | IL-1 content of the supernatants ([2]; 0.1 μM): 48.1 pg/mL | IL-1 content of the supernatants ([2]; 100 μM): 32.1 pg/mL | TNFα content of the supernatants ([3]; 0.1 μM): 13.8 pg/mL | TNFα content of the supernatants ([3]; 3 μM): 12.9 pg/mL | TNFα content of the supernatants ([3]; 100 μM): 12.6 pg/mL | TNFα content of the supernatants ([4]; 3 μM, DMSO control 30.3 pg/ml): 27.7 pg/mL | TNFα content of the supernatants ([4]; 10 μM, DMSO control 30.3 pg/ml): 28.2 pg/mL | TNFα content of the supernatants ([4]; 30 μM, DMSO control 30.3 pg/ml): 20.1 pg/mL
